Usually IC50 stands for the midpoint of a concentration-inhibition curve.

From patent US10214535B2, “Hydroxmethyl piperidine orexin receptor antagonists” (MERCK SHARP & DOHME CORP., priority 2014, dated 2019) come the findings set out here.

The target in test [1] is human orexin-2 receptor (Homo sapiens (Human), UniProt O43614). The experiment in a line: hOX2R FLIPR Ca2+ flux assay. Format: cell-based. The conditions noted are these: CHO cells expressing the human orexin-2 receptor; agonist 70 pM Ala-6,12 orexin-A. The procedure: In a typical experiment the OX1 and OX2 receptor antagonistic activity of the compounds of the present invention was determined in accordance with the following experimental method. For intracellular calcium measurements, Chinese hamster ovary (CHO) cells expressing the rat orexin-1 receptor or the human orexin-2 receptor, are grown in Iscove's modified DMEM containing 2 mM L-glutamine, […], 1% hypoxanthine-thymidine supplement, 100 U/ml penicillin, 100 μg/ml streptomycin and 10% heat-inactivated fetal calf serum (FCS). The cells are seeded at 20,000 cells/well into Becton-Dickinson black 384-well clear bottom sterile plates coated with poly-D-lysine. All reagents were from GIBCO-Invitrogen Corp. The seeded plates are incubated overnight at 37° C. and 5% CO2. Ala-6,12 human orexin-A as the agonist is prepared as a 1 mM stock solution in 1% bovine serum albumin (BSA) and diluted in assay buffer (HBSS containing 20 mM HEPES, 0.1% BSA and 2.5 mM probenecid, pH7.4) for use in the assay at a final concentration of 70 pM. Test compounds are prepared as 10 mM stock solution in DMSO, then diluted in 384-well plates, first in DMSO, then assay buffer. On the day of the assay, cells are washed 3 times with 100 μl assay buffer and then incubated for 60 min (37° C., 5% CO2) in 60 μl assay buffer containing 1 μM Fluo-4AM ester, 0.02% pluronic acid, and 1% BSA. The dye loading solution is then aspirated and cells are washed 3 times with 100 μl assay buffer. 30 μl of that same buffer is left in each well. Within the Fluorescent Imaging Plate Reader (FLIPR, Molecular Devices), test compounds are added to the plate in a volume of 25 μl, incubated for 5 min and finally 25 μl of agonist is added. Fluorescence is measured for each well at 1 second intervals for 5 minutes and the height of each fluorescence peak is compared to the height of the fluorescence peak induced by 70 pM Ala-6,12 orexin-A with buffer in place of antagonist. For each antagonist, IC50 value (the concentration of compound needed to inhibit 50% of the agonist response) is determined. Alternatively, compound potency can be assessed by a radioligand binding assay (described in Bergman et. al. Bioorg. Med. Chem. Lett. 2008, 18, 1425-1430) in which the inhibition constant (Ki) is determined in membranes prepared from CHO cells expressing either the OX1 or OX2 receptor. The intrinsic orexin receptor antagonist activity of a compound which may be used in the present invention may be determined by these assays.
On the technique in general: A change in cytosolic calcium serves as a functional read-out for many receptors and channels.

In test [2] the target is hOX1R (Homo sapiens, UniProt O43613). The experiment in a line: hOX1R FLIPR Ca2+ flux assay. The format is cell-based.
Where [3] appears, read: CHO cells expressing orexin-1 receptor, agonist 70 pM Ala-6,12 orexin-A, read-out: hOX1R FLIPR IC50.

Read-outs that look alike come from different tables or passages of the source. Where only a bound is given, the exact number is not on record here.

Chain of human orexin-2 receptor (O43614 whole entry): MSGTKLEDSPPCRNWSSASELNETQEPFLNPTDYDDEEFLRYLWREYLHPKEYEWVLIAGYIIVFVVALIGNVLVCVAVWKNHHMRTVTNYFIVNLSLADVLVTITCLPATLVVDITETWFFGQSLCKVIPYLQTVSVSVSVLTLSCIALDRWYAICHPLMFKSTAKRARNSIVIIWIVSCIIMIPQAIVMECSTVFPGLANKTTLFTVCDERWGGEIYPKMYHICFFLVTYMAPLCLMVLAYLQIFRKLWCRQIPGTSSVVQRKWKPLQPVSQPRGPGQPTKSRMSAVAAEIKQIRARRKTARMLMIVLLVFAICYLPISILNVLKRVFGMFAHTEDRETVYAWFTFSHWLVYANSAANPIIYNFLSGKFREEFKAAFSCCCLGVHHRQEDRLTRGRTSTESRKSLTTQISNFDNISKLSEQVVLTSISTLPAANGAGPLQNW

As to `CC1(C)OC(=O)c2c1ccnc2O[C@@H]1CC[C@@H](CO)N(C(=O)c2ccccc2-n2nccn2)C1` [Example 2, 4-{[(3R,6S)-6-(Hydroxymethyl)-1-{[2-(2H-1,2,3-triazol-2-yl)phenyl]carbonyl}piperidin-3-yl]oxy}-1,1-dimethylfuro[3,4-c]pyridin-3(1H)-one], the IC50 was 21 nM in test [1] and greater than 10000 nM in test [2] (setting [3]).

`Cc1ccnc(O[C@@H]2CC[C@@H](CO)N(C(=O)c3ccccc3-n3nccn3)C2)c1` [Example 5, [(2S,5R)-5-[(4-methylpyridin-2-yl)oxy]-1-{[2-(2H-1,2,3-triazol-2-yl)phenyl]carbonyl}piperidin-2-yl]methanol]: the IC50 amounted to 18 nM in test [1] and 1710 nM in test [2] (setting [3]).

On to `COc1c(C#N)ccnc1O[C@@H]1CC[C@@H](CO)N(C(=O)c2ccccc2OC(F)(F)F)C1` [Example 14, 2-{[(3R,6S)-(hydroxymethyl)-1-{[2-(trifluoromethoxy)phenyl]carbonyl}piperidin-3-yl]oxy}-3-methoxypyridine-4-carbonitrile], for which the IC50 was 14 nM in test [1] and greater than 10000 nM in test [2] (setting [3]).

For the molecule `N#Cc1ccnc(O[C@@H]2CC[C@@H](CO)N(C(=O)c3ccccc3-n3nccn3)C2)c1` [Example 3, 2-{[(3R,6S)-6-(hydroxymethyl)-1-{[2-(2H-1,2,3-triazol-2-yl)phenyl]carbonyl}piperidin-3-yl]oxy}pyridine-4-carbonitrile], the IC50 in test [1] was 17 nM; in test [2] (setting [3]) it was greater than 10000 nM.

For `Cc1c(C#N)ccnc1O[C@@H]1CC[C@@H](CO)N(C(=O)c2ccccc2-n2nccn2)C1` [Example 7, 2-{[(3R,6S)-6-(hydroxymethyl)-1-{[2-(2H-1,2,3-triazol-2-yl)phenyl]carbonyl}piperidin-3-yl]oxy}-3-methylpyridine-4-carbonitrile], the IC50 in test [1] amounted to 8 nM; in test [2] (setting [3]), 1780 nM.

With `COc1c(C#N)ccnc1O[C@@H]1CC[C@@H](CO)N(C(=O)c2ccccc2OC(F)F)C1` [Example 13, 2-{[(3R,6S)-1-{[2-(difluoromethoxy)phenyl]carbonyl}-6-(hydroxymethyl)piperidin-3-yl]oxy}-3-methoxypyridine-4-carbonitrile], the values for the IC50 in test [1] and in test [2] (setting [3]) were 39 nM and greater than 10000 nM, respectively.

`Cc1c(C#N)ccnc1O[C@@H]1CC[C@@H](C(C)(C)O)N(C(=O)c2ccccc2-n2nccn2)C1` [Example 16, 2-{[(3R,6S)-6-(1-hydrox-1-methylethyl)-1-{[2-(2H-1,2,3-triazol-2-yl)phenyl]carbonyl}piperidin-3-yl]oxy}-3-methylpyridine-4-carbonitrile]: the figures for the IC50 in test [1] and in test [2] (setting [3]) were 27 nM and 1330 nM, respectively.

On to `COc1c(C#N)ccnc1O[C@@H]1CC[C@@H](CO)N(C(=O)c2cccnc2OC(C)C)C1` [Example 12, 2-{[(3R,6S)-6-(hydroxymethyl)-1-{[2-(1-methylethoxy)pyridin-3-yl]carbonyl}piperidin-3-yl]oxy}-3-methoxypyridine-4-carbonitrile], for which the IC50 in test [1] is 27 nM; in test [2] (setting [3]) it was greater than 10000 nM.

In the case of `COC(=O)c1c(C#N)cccc1O[C@@H]1CC[C@@H](CO)N(C(=O)c2ccccc2-n2nccn2)C1` [Example 4, methyl 2-cyano-6-{[(3R,6S)-6-(hydroxymethyl)-1-{[2-(2H-1,2,3-triazol-2-yl)phenyl]carbonyl}piperidin-3-yl]oxy} benzoate], the IC50 in test [1] was 49 nM; in test [2] (setting [3]), greater than 10000 nM.

Turning to `COc1c(C#N)ccnc1O[C@@H]1CC[C@@H](CO)N(C(=O)c2cccnc2OCC(F)(F)F)C1` [Example 11, 2-{[(3R,6S)-6-(hydroxymethyl)-1-{[2-(2,2,2-trifluoroethoxy)pyridin-3-yl]carbonyl}piperidin-3-yl]oxy}-3-methoxypyridine-4-carbonitrile], the IC50 worked out at 9 nM in test [1] and 4080 nM in test [2] (setting [3]).

On to `O=C(c1ccccc1-n1nccn1)N1C[C@H](Oc2cc(OCC(F)F)ccn2)CC[C@H]1CO` [Example 6, [(2S,5R)-5-{[4-(2,2-difluoroethoxy)pyridin-2-yl]oxy}-1-{[2-(2H-1,2,3-triazol-2-yl)phenyl]carbonyl}piperidin-2-yl]methanol], for which the IC50 in test [1] was 60 nM; in test [2] it was greater than 10000 nM.

Consider `CC(C)(O)[C@@H]1CC[C@@H](Oc2cc(C#N)ccn2)CN1C(=O)c1ccccc1-n1nccn1` [Example 15, 2-{[(3R,6S)-6-(1-Hydroxy-1-methylethyl)-1-{[2-(2H-1,2,3-triazol-2-yl)phenyl]carbonyl}-piperidin-3-yl]oxy}pyridine-4-carbonitrile], for which the IC50 in test [1] is 31 nM; in test [2] (setting [3]), greater than 10000 nM.

In the case of `CCOc1ccccc1C(=O)N1C[C@H](Oc2nccc(C#N)c2OC)CC[C@H]1CO` [Example 10, 2-{[(3R,6S)-1-[(2-Ethoxyphenyl)carbonyl]-6-(hydroxymethyl)piperidin-3-yl]oxy}-3-methoxypyridine-4-carbonitrile], the results for the IC50 in test [1] and in test [2] (setting [3]) were 12 nM and greater than 10000 nM, respectively.

Regarding `COC(=O)c1c(OC)cccc1O[C@@H]1CC[C@@H](CO)N(C(=O)c2ccccc2-n2nccn2)C1` [Example 1, Methyl 2-{[(3R,6S)-6-(hydroxymethyl)-1-{[2-(2H-1,2,3-triazol-2-yl)phenyl]carbonyl}-piperidin-3-yl]oxy}-6-methoxybenzoate], the IC50 in test [1] is 198 nM; in test [2] (setting [3]), greater than 10000 nM.
